pIC50: −log10 of the molar value. Like-named read-outs stand apart in the source and are kept apart here.
Tests used:
[1] = Solubility in aqueous solutions; type: physicochemical
[2] = molecular target: MMP-9 (human leukocyte gelatinase) (Homo sapiens (Human), UniProt P14780); assay: MMP-9 inhibition in vitro, octapeptide/HPLC; type: biochemical
From the text: In contrast all three chemically-modified curcumins at 100 μm final concentration inhibited gelatinase activity by 68-100% (FIG. 6 and Table 6).

IL-1β = assay: Diabetic rat model, 3-week oral treatment: gingival IL-1β by ELISA; type: in vivo; details: 3 weeks
Experimental: (§1) At the end of the treatment protocol, the rats were sacrificed, blood samples were collected, and whole skin (except over limbs) and gingiva were dissected (the skin, because of ample quantities of tissue were analyzed for each rat separately; the gingiva, because of the tiny amounts that could be harvested per rat, were pooled for each experimental group, as prescribed previously for tetracycline studies (30). In addition, the jaw bones were collected, defleshed, and bone loss around the teeth analyzed morphometrically as described previously (42, 43).

purified human PMN MMP-8 = purified human PMN MMP-8 (Homo sapiens (Human), UniProt P22894); assay: MMP-8 inhibition, synthetic octapeptide substrate, tripeptide product by HPLC; type: biochemical
Sequence of purified human PMN MMP-8 (P22894 101-467): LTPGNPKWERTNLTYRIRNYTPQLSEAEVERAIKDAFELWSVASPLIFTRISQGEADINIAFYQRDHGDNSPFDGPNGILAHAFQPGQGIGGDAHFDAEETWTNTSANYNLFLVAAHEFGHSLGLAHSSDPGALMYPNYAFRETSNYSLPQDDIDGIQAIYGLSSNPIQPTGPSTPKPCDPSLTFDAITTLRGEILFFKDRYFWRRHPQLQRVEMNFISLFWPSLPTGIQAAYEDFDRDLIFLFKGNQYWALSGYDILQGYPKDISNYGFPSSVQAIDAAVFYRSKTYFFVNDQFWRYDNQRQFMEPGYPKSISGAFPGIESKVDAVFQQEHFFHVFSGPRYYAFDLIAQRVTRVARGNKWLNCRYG

[3] = Diabetic rat model, 1-week oral treatment: serum glucose; type: in vivo; details: diabetic rats, 100 mg/kg oral once/day for 7 days
From the text: The purpose of the following was to establish an in vivo model of excessive collagen degradation to be used to test efficacy of the compounds of the subject invention. Male Sprague-Dawley rats (typically 300-400 gms of body weight), specific viral antibody free, were ordered from Charles River. Following general anesthesia via isoflurane anesthetic inhalation, diabetes was induced by an I.V. administration of streptozotocin (STZ) (50* mg/kg body weight) (Sigma Chemical Co., St Louis, Mo., USA) diluted in 0.9% citrated saline (pH 4.5), after 12 hours of fasting. After the streptozotocin injection, the animals were given free access to water and food. […] In this test, the test-paper color changes to dark brown which indicates glycosuria.
The latter assays were carried out using Western blot analysis with monoclonal antibodies to MMP-8.

[4] = molecular target: T1, MMP-9 (92 kDa gelatinase) (Rattus norvegicus (Rat), UniProt P50282); assay: Diabetic rat model, 3-week oral treatment: gingival MMP-9 by gelatin zymography; type: in vivo; details: diabetic rats, 100 mg/kg and 500 mg/kg oral daily, 3 weeks
Experimental: as §1
(§2) This appearance of MMP-9 only in the gingiva (FIG. 10), but not the skin (FIG. 12), of the diabetic rats is likely the result of the oral bacteria inducing inflammation in the gingiva of these immune-suppressed UD rats, whereas the skin is not exposed to this onslaught of bacteria particularly the anaerobic gram-negative bacteria in the mouth that cause periodontal and gingival inflammation.

human monocytes [5] = assay: Cytotoxicity in human monocytes (MTS); type: cell-based
[6] = molecular target: T1, MMP-9 (92 kDa gelatinase); assay: Diabetic rat model, 1-week oral treatment: plasma MMP-9 by gelatin zymography; type: in vivo; details: diabetic rats, 100 mg/kg oral once/day for 7 days
p38 MAP kinase = p38 MAP kinase activation; type: cell-based, human; details: preliminary studies
[7] = test system: alveolar (periodontal) bone loss in diabetic rats; assay: Diabetic rat model, 3-week oral treatment: alveolar bone loss, morphometric; type: in vivo; details: 3 weeks
Experimental: as §1
Alveolar bone loss (the signature pathologic event in inflammatory periodontal disease) was assessed in the defleshed jaws of the compound 1-treated (TX) and untreated rats.

[8] = molecular target: chromatographically-purified MMP-2 (Homo sapiens (Human), UniProt P08253); assay: MMP-2 inhibition in vitro, octapeptide/HPLC; type: biochemical
Sequence of chromatographically-purified MMP-2 (P08253 110-660): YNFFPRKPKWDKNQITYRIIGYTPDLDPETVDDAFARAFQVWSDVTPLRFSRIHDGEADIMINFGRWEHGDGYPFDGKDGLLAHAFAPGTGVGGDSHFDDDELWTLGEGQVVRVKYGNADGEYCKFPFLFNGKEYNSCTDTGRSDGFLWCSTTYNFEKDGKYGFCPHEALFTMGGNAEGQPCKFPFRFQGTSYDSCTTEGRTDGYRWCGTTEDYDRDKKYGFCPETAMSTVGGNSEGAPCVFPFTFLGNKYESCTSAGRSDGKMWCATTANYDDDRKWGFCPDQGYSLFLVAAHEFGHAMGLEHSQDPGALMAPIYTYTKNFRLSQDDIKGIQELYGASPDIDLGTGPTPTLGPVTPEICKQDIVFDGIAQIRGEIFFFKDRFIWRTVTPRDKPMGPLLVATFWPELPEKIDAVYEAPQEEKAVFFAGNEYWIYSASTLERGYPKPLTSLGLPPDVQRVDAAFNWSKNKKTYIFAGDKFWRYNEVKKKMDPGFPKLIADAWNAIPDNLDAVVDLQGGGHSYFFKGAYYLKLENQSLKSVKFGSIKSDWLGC

human monocytes [9] = assay: Cytotoxicity in human monocytes (MTS); type: cell-based; remark: listed apart in the source
Experimental: Briefly, human peripheral blood monocytes (HMs) were isolated from a leukocyte concentrate by density gradient centrifugation (Lymphoprep) and the isolated HMs cultured (2 h, 37° C.) to remove non-adherent cells. The adherent HMs were cultured for 18 h (1×10^6 cells/well, 24-well plates)±endotoxin (LPS)±different compounds dissolved in DMSO (the final concentration of DMSO in the RPMI serum-free culture media with Pen./Strep. antibiotics was no greater than 0.5%). After incubation, the proinflammatory cytokines, TNFα, IL-1β, MCP-1 and IL-6 were measured in the conditioned media by ELISA and cytotoxicity was assessed by measuring the absorbance (490 nm) of formazan produced by reduction of MTS. The HMs alone ±0.1-0.5% DMSO produced minimal levels of these pro-inflammatory cytokines. However, addition of 100 ng/ml or 10 μg/ml of LPS both dramatically stimulated cytokine production.

[10] = Diabetic rat model, 3-week oral treatment: blood glucose and hemoglobin A1c; type: in vivo; details: diabetic rats, 100 mg/kg and 500 mg/kg oral daily, 3 weeks
Experimental: as §1

MMP-2 (gelatinase A) = MMP-2 (gelatinase A) (Rattus norvegicus (Rat), UniProt P33436); assay: Diabetic rat model, 3-week oral treatment: gingival MMP-2 by gelatin zymography; type: in vivo; details: diabetic rats, oral daily, 3 weeks
Experimental: as §1, §2

[11] = Extractability/recovery from human serum by HPLC; details: human
Experimental: Detection of compounds & extractability/recovery from human serum (for future use to determine in vivo pharmacokinetics) was achieved using HPLC. The HPLC detection method is briefly described herein. 50 μl of buffer or human serum containing 166.67 μM, 16.67 μM and 1.67 μM of the compounds were incubated with 100 μl pre-cooled (−10° C.) extraction solvent containing CAN-MeOH-0.5M oxalic acid at a ratio of 60:30:10. The mixture was vortexed and centrifuged at 10,000 rpm for 10 min. The supernatant was then aliquoted and injected into an HPLC for analysis. Stock solutions of the compounds were made 100× in DMSO, then further diluted with buffer or serum.

[12] = test system: caspase-3 activity in neonatal rat ventricular myocytes; assay: Doxorubicin mediated caspase-3 activity; type: cell-based; details: 10 μM, doxorubicin 500 nM, 6 h and 24 h
Experimental: (§3) Test compounds and concentrations (MMP inhibitors, MMPi): • 1. GM-6001: 10 μM • 2. ONO-4817: 10 μM • 3.
Neonatal rat ventricular myocytes, serum starved for 24 h, were treated with the inhibitors 1 h prior to the addition of 500 nM of doxorubicin (Sigma). At the indicated time points cells were washed with ice-cold phosphate buffered saline and lysed using RIPA buffer (Pierce) containing protease and phosphatase inhibitors (Sigma). Caspase-3 activity in the cell lysates was measured by incubation with 7-amino-4-trifluoromethyl coumarin (Enzo).

[13] = test system: neonatal rat ventricular myocytes; assay: Hydrogen peroxide induced LDH release; type: cell-based; details: 10 μM, H2O2 100 μM
Experimental: as §3
Neonatal rat ventricular myocytes, serum starved for 24 h, were treated with the inhibitors 1 h prior to the addition of 100 μM of hydrogen peroxide (Sigma). LDH release in the conditioned media was quantified using CytoTox-ONE Homogeneous Membrane Integrity Assay reagent (Promega) at the indicated time points.

MCP-1, TNFα, VEGF = assay: Cytokine and growth factor levels in LPS-challenged human monocytes, Luminex multiplex; type: cell-based; details: 2 μM, FIG. 2
Experimental: The cytokine levels were measured by Luminex multiplex, a method that allows the simultaneous measurement of different biological markers.

[14] = molecular target: MMP-2 (72 kDa gelatinase) (Rattus norvegicus (Rat), UniProt P33436); assay: Diabetic rat model, 1-week oral treatment: plasma MMP-2 by gelatin zymography; type: in vivo; details: diabetic rats, 100 mg/kg oral once/day for 7 days
diabetic rats = assay: Diabetic rat model, 1-week oral treatment: diabetic adverse events; type: in vivo; details: 100 mg/kg oral once/day for 7 days, n = 6
MMP-2 = MMP-2 (Rattus norvegicus (Rat), UniProt P33436); assay: Diabetic rat model, 3-week oral treatment: skin MMP-2 by ELISA; type: in vivo; details: both low and high doses, 3 weeks
Experimental: as §1

[15] = molecular target: MMP-9 generated by PC-3 human prostate cancer cells (Homo sapiens (Human), UniProt P14780); assay: MMP-9 in conditioned media of PC-3 cells, gelatin zymography and Western blot; type: cell-based; details: 10 μM and 20 μM, 48 hr, serum-free media
Experimental: Compound 1 was evaluated in a cell culture model of cancer. […] After the incubation, aliquots of the conditioned media were assayed for MMP-9 (gelatinase B) by either of two techniques, gelatin zymography (in the presence of 2 or 10 mMCa^++) and Western blot (both assays used purified MMP-9, 92 kDa gelatinase, as a standard).

Sequence of MMP-9 (human leukocyte gelatinase) (P14780 94-707): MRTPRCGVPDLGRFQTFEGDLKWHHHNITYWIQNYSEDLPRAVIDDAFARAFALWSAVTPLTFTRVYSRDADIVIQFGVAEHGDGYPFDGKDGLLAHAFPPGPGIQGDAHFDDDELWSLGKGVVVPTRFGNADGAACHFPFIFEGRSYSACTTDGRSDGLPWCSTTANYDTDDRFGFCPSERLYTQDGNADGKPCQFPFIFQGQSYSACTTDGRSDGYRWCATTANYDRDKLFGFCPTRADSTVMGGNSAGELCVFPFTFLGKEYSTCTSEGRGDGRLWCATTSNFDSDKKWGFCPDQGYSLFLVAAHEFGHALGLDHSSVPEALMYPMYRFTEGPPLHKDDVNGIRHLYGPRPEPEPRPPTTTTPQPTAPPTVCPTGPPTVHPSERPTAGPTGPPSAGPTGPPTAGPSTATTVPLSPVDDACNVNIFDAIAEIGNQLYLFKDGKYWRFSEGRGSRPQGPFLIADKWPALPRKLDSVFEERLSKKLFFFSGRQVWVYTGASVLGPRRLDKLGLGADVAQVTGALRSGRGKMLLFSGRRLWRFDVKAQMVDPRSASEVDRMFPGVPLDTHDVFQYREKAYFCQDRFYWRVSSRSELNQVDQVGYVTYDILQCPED

IC50 [2]: 16 µM | pIC50 (purified human PMN MMP-8; Example 7 experiment, 1 mM Ca++, 37° C., read-out: IC50, human neutrophil collagenase (MMP-8)): 5.00 | pIC50 (purified human PMN MMP-8; Table 1 experiments, read-out: IC50 against purified hMMP-8): 4.46 | MMP-9 level in gingiva [4]: reduced MMP-9 to the undetectable levels | Effect on p38 MAP kinase activation (p38 MAP kinase): little/no effect | Maximum Inhibition @ 100 μM, MMP-2 ([8]; 100 μM): 78% | pIC50 ([8]; read-out: IC50 MMP-2): 4.32 | Recovery from human serum [11]: 76-80% | Reduction of elevated MMP-2 level in skin (ELISA) (MMP-2): 28%
Structure (SMILES): COC(=O)C(C(=O)/C=C/c1ccc(O)c(OC)c1)C(=O)/C=C/c1ccc(O)c(OC)c1 [Compound 1, 1,7-Bis(4-hydroxy-3-methoxyphenyl)-4-methoxycarbonylhepta-1E,6E-dien-3,5-dione]
Solubility in aqueous solutions (comparative) [1]: more soluble than the insoluble natural product curcumin | Reduction of IL-1β in gingiva vs untreated diabetic (IL-1β; higher oral dose (500 mg/kg)): 95% | Reduction of IL-1β in gingiva vs untreated diabetic (IL-1β; lower oral dose (100 mg/kg)): about 18% | IC50 against purified hMMP-8 (purified human PMN MMP-8; Table 1 experiments): equivalent to that of 1,10-O-phenanthroline | Effect on severity of hyperglycemia (serum glucose) [3]: no effect on the severity of hyperglycemia | Cytotoxicity Monocytes @ 5 h incubation (human monocytes [5]; 2 uM): 2 uM- 0% | Cytotoxicity Monocytes @ 5 h incubation (human monocytes [5]; 10 uM): 10 uM- 0% | Cytotoxicity Monocytes @ 5 h incubation (human monocytes [5]; 25 uM): 25 uM- 33% | Plasma MMP-9 level [6]: reduced the excessive levels of MMPs to essentially normal levels | Reduction in alveolar bone loss vs untreated groups ([7]; 100 mg/kg oral, p<0.05): ~60% | Reduction in alveolar bone loss vs untreated groups ([7]; 500 mg/kg oral): less effective | Cytotoxicity Monocytes @ 18 h incubation (human monocytes [9]; 25 uM): 25 uM- 45.5% | Cytotoxicity Monocytes @ 18 h incubation (human monocytes [9]; 50 uM): 50 uM- 53% | Effect on blood glucose and hemoglobin A1c levels [10]: no significant effect | Pro- and activated-forms of MMP-2 in gingiva (MMP-2 (gelatinase A)): neither diabetes nor compound 1 appeared to have a detectable effect | Effect on caspase-3 activity mediated by doxorubicin [12]: None of the MMP inhibitors, including compound 1, negatively modulate caspase-3 activity | LDH release ([13]; 6 h): 24286±930 | Effect on LDH release ([13]; 24 h): less dramatic effect | Reduction of proinflammatory cytokines and growth factors (MCP-1, TNFα, VEGF) (MCP-1, TNFα, VEGF): potent in reducing proinflammatory cytokines such as MCP-1 and TNFα and growth factors such as VEGF | Plasma MMP-2 level [14]: reduced the excessive levels of MMPs to essentially normal levels | Description of AEs (diabetic rats): Minor inflamed sclera | Incidence of Adverse Events (AEs) (diabetic rats): 1/6 | Production and/or activity of MMP-9 [15]: inhibited the production and/or activity of MMP-9

From US9187406B2 (The Research Foundation of State University of New York, priority 2009, dated 2015)
